# Laboratory results published in PubChem BioAssay (NCI).
#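 Compound exposure: 48 hours, 5 concentrations, 96-well plates. GI50 = concentration required for 50% inhibition of growth. TGI: total growth inhibition.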
# Assays:
# Test in all cases: NCI-60 cell line screen, 48 h
# MALME-3M melanoma = system: MALME-3M melanoma
# SF-539 CNS = system: SF-539 CNS
# HCT-116 colon = system: HCT-116 colon
# MOLT-4 leukemia = system: MOLT-4 leukemia
# HOP-62 NSCLC = system: HOP-62 NSCLC
# NCI-H460 lung = system: NCI-H460 lung
# IGROV1 ovarian = system: IGROV1 ovarian
# SW-620 colon = system: SW-620 colon
# HL-60(TB) leukemia = system: HL-60(TB) leukemia
# DU-145 prostate = system: DU-145 prostate
# LOX IMVI melanoma = system: LOX IMVI melanoma
# MCF7 breast = system: MCF7 breast
# RPMI-8226 leukemia = system: RPMI-8226 leukemia
# KM12 colon = system: KM12 colon
# HT29 colon = system: HT29 colon
# SR leukemia = system: SR leukemia
# MDA-MB-231 breast = system: MDA-MB-231 breast
# HCT-15 colon = system: HCT-15 colon
# A549 NSCLC = system: A549 NSCLC
# HS 578T breast = system: HS 578T breast
# OVCAR-3 ovarian = system: OVCAR-3 ovarian
# CAKI-1 renal = system: CAKI-1 renal
# T-47D breast = system: T-47D breast
# PC-3 prostate = system: PC-3 prostate
# SF-268 CNS = system: SF-268 CNS
# SNB-19 CNS = system: SNB-19 CNS
# MDA-MB-435 = system: MDA-MB-435
# NCI/ADR-RES ovarian = system: NCI/ADR-RES ovarian
# OVCAR-5 ovarian = system: OVCAR-5 ovarian
# OVCAR-8 ovarian = system: OVCAR-8 ovarian
# NCI-H23 lung = system: NCI-H23 lung
# CCRF-CEM leukemia = system: CCRF-CEM leukemia
# NCI-H522 lung = system: NCI-H522 lung
# HCC-2998 colon = system: HCC-2998 colon
# A498 renal = system: A498 renal
# UACC-257 melanoma = system: UACC-257 melanoma
# ACHN renal = system: ACHN renal
# UACC-62 melanoma = system: UACC-62 melanoma
# OVCAR-4 ovarian = system: OVCAR-4 ovarian
# NCI-H226 lung = system: NCI-H226 lung
# SK-MEL-28 melanoma = system: SK-MEL-28 melanoma
# SN12C renal = system: SN12C renal
# UO-31 renal = system: UO-31 renal
# COLO 205 colon = system: COLO 205 colon
# TK-10 renal = system: TK-10 renal
# SNB-75 CNS = system: SNB-75 CNS
# SF-295 CNS = system: SF-295 CNS
# U251 CNS = system: U251 CNS
# 786-0 renal = system: 786-0 renal
# RXF 393 renal = system: RXF 393 renal
# EKVX NSCLC = system: EKVX NSCLC
# SK-OV-3 ovarian = system: SK-OV-3 ovarian
# BT-549 breast = system: BT-549 breast
# SK-MEL-2 melanoma = system: SK-MEL-2 melanoma
# SK-MEL-5 melanoma = system: SK-MEL-5 melanoma
# K-562 leukemia = system: K-562 leukemia
# M14 melanoma = system: M14 melanoma
smiles,measurement,setting,value
CCCCOc1ccc(S(=O)(=O)N2CCN(c3nc(C)cc(N4CCOCC4)n3)CC2)cc1,GI50,MALME-3M melanoma,> 100000 nM
same,TGI,MALME-3M melanoma,> 100000 nM
same,GI50,SF-539 CNS,> 100000 nM
same,TGI,SF-539 CNS,> 100000 nM
same,GI50,HCT-116 colon,1440 nM
same,TGI,HCT-116 colon,> 100000 nM
same,GI50,MOLT-4 leukemia,2270 nM
same,TGI,MOLT-4 leukemia,> 100000 nM
same,GI50,HOP-62 NSCLC,> 100000 nM
same,TGI,HOP-62 NSCLC,> 100000 nM
same,GI50,NCI-H460 lung,1670 nM
same,TGI,NCI-H460 lung,> 100000 nM
same,GI50,IGROV1 ovarian,1090 nM
same,TGI,IGROV1 ovarian,> 100000 nM
same,GI50,SW-620 colon,2330 nM
same,TGI,SW-620 colon,> 100000 nM
same,GI50,HL-60(TB) leukemia,420 nM
same,TGI,HL-60(TB) leukemia,> 100000 nM
same,GI50,DU-145 prostate,1010 nM
same,TGI,DU-145 prostate,> 100000 nM
same,GI50,LOX IMVI melanoma,294 nM
same,TGI,LOX IMVI melanoma,942 nM
same,GI50,MCF7 breast,> 100000 nM
same,TGI,MCF7 breast,> 100000 nM
same,GI50,RPMI-8226 leukemia,2640 nM
same,TGI,RPMI-8226 leukemia,> 100000 nM
same,GI50,KM12 colon,3120 nM
same,TGI,KM12 colon,> 100000 nM
same,GI50,HT29 colon,888 nM
same,TGI,HT29 colon,6230 nM
same,GI50,SR leukemia,5460 nM
same,TGI,SR leukemia,> 100000 nM
same,TGI,MDA-MB-231 breast,> 100000 nM
same,GI50,HCT-15 colon,2090 nM
same,TGI,HCT-15 colon,> 100000 nM
same,GI50,A549 NSCLC,3850 nM
same,TGI,A549 NSCLC,> 100000 nM
same,GI50,HS 578T breast,> 100000 nM
same,TGI,HS 578T breast,> 100000 nM
same,GI50,OVCAR-3 ovarian,> 100000 nM
same,TGI,OVCAR-3 ovarian,> 100000 nM
same,GI50,CAKI-1 renal,2110 nM
same,TGI,CAKI-1 renal,> 100000 nM
same,GI50,T-47D breast,> 100000 nM
same,TGI,T-47D breast,> 100000 nM
same,GI50,PC-3 prostate,4540 nM
same,TGI,PC-3 prostate,> 100000 nM
same,GI50,SF-268 CNS,2320 nM
same,TGI,SF-268 CNS,> 100000 nM
same,GI50,SNB-19 CNS,> 100000 nM
same,TGI,SNB-19 CNS,> 100000 nM
same,GI50,MDA-MB-435,1450 nM
same,TGI,MDA-MB-435,> 100000 nM
same,GI50,NCI/ADR-RES ovarian,2450 nM
same,TGI,NCI/ADR-RES ovarian,> 100000 nM
same,GI50,OVCAR-5 ovarian,> 100000 nM
same,TGI,OVCAR-5 ovarian,> 100000 nM
O=c1c2cc(-c3ccc(F)cc3F)ccc2n(O)c(=O)n1-c1cccc(C(F)(F)F)c1,GI50,MALME-3M melanoma,1510 nM
same,TGI,MALME-3M melanoma,5390 nM
same,GI50,OVCAR-8 ovarian,1080 nM
same,TGI,OVCAR-8 ovarian,8890 nM
same,GI50,SF-539 CNS,1470 nM
same,TGI,SF-539 CNS,7940 nM
same,GI50,HCT-116 colon,420 nM
same,TGI,HCT-116 colon,1610 nM
same,GI50,NCI-H23 lung,722 nM
same,TGI,NCI-H23 lung,5300 nM
same,GI50,MOLT-4 leukemia,419 nM
same,TGI,MOLT-4 leukemia,2130 nM
same,GI50,HOP-62 NSCLC,1800 nM
same,TGI,HOP-62 NSCLC,4340 nM
same,GI50,CCRF-CEM leukemia,3120 nM
same,TGI,CCRF-CEM leukemia,> 100000 nM
same,GI50,NCI-H522 lung,369 nM
same,TGI,NCI-H522 lung,2550 nM
same,GI50,HCC-2998 colon,2510 nM
same,TGI,HCC-2998 colon,9900 nM
same,GI50,NCI-H460 lung,668 nM
same,TGI,NCI-H460 lung,5230 nM
same,GI50,A498 renal,347 nM
same,TGI,A498 renal,1260 nM
same,GI50,IGROV1 ovarian,2030 nM
same,TGI,IGROV1 ovarian,25400 nM
same,GI50,UACC-257 melanoma,1010 nM
same,TGI,UACC-257 melanoma,4480 nM
same,GI50,ACHN renal,2080 nM
same,TGI,ACHN renal,10400 nM
same,GI50,SW-620 colon,2050 nM
same,TGI,SW-620 colon,10500 nM
same,GI50,UACC-62 melanoma,323 nM
same,TGI,UACC-62 melanoma,1310 nM
same,GI50,DU-145 prostate,2480 nM
same,TGI,DU-145 prostate,49100 nM
same,GI50,OVCAR-4 ovarian,2190 nM
same,TGI,OVCAR-4 ovarian,> 100000 nM
same,GI50,LOX IMVI melanoma,1220 nM
same,TGI,LOX IMVI melanoma,2940 nM
same,GI50,MCF7 breast,1610 nM
same,TGI,MCF7 breast,7120 nM
same,GI50,RPMI-8226 leukemia,1020 nM
same,TGI,RPMI-8226 leukemia,5850 nM
same,GI50,NCI-H226 lung,1010 nM
same,TGI,NCI-H226 lung,3640 nM
same,GI50,SK-MEL-28 melanoma,1260 nM
same,TGI,SK-MEL-28 melanoma,10000 nM
same,GI50,KM12 colon,2160 nM
same,TGI,KM12 colon,7070 nM
same,GI50,SN12C renal,683 nM
same,TGI,SN12C renal,5410 nM
same,GI50,UO-31 renal,2230 nM
same,TGI,UO-31 renal,9300 nM
same,GI50,HT29 colon,4300 nM
same,TGI,HT29 colon,26800 nM
same,GI50,SR leukemia,259 nM
same,TGI,SR leukemia,1880 nM
same,GI50,COLO 205 colon,1940 nM
same,TGI,COLO 205 colon,4050 nM
same,GI50,MDA-MB-231 breast,1590 nM
same,TGI,MDA-MB-231 breast,6360 nM
same,GI50,HCT-15 colon,435 nM
same,TGI,HCT-15 colon,2280 nM
same,GI50,A549 NSCLC,2950 nM
same,TGI,A549 NSCLC,20100 nM
same,GI50,TK-10 renal,4190 nM
same,TGI,TK-10 renal,9170 nM
same,GI50,SNB-75 CNS,1510 nM
same,TGI,SNB-75 CNS,6450 nM
same,GI50,SF-295 CNS,1650 nM
same,TGI,SF-295 CNS,3450 nM
same,GI50,HS 578T breast,837 nM
same,TGI,HS 578T breast,4420 nM
same,GI50,U251 CNS,1860 nM
same,TGI,U251 CNS,15700 nM
same,GI50,CAKI-1 renal,1610 nM
same,TGI,CAKI-1 renal,6020 nM
same,GI50,786-0 renal,2150 nM
same,TGI,786-0 renal,5660 nM
same,GI50,T-47D breast,1490 nM
same,TGI,T-47D breast,5760 nM
same,GI50,RXF 393 renal,1050 nM
same,TGI,RXF 393 renal,3140 nM
same,GI50,EKVX NSCLC,2350 nM
same,TGI,EKVX NSCLC,8470 nM
same,GI50,SK-OV-3 ovarian,1130 nM
same,TGI,SK-OV-3 ovarian,3880 nM
same,GI50,BT-549 breast,437 nM
same,TGI,BT-549 breast,1580 nM
same,GI50,PC-3 prostate,1800 nM
same,TGI,PC-3 prostate,6950 nM
same,GI50,SF-268 CNS,1750 nM
same,TGI,SF-268 CNS,15500 nM
same,GI50,SK-MEL-2 melanoma,534 nM
same,TGI,SK-MEL-2 melanoma,2290 nM
same,GI50,SNB-19 CNS,682 nM
same,TGI,SNB-19 CNS,> 100000 nM
same,GI50,MDA-MB-435,1560 nM
same,TGI,MDA-MB-435,7670 nM
same,GI50,NCI/ADR-RES ovarian,1170 nM
same,TGI,NCI/ADR-RES ovarian,10500 nM
same,GI50,SK-MEL-5 melanoma,263 nM
same,TGI,SK-MEL-5 melanoma,708 nM
same,GI50,K-562 leukemia,424 nM
same,TGI,K-562 leukemia,35000 nM
same,GI50,M14 melanoma,773 nM
same,TGI,M14 melanoma,3470 nM
same,GI50,OVCAR-5 ovarian,3380 nM
same,TGI,OVCAR-5 ovarian,92900 nM
